PubChem BioAssay AID2060615 (Molecular Pharmacology Branch, DTP, NCI, 2025)
Several values for one entry are separate records, joined by “and”; a condition that tells them apart may be missing. Equal entries are not always repeated. Blank lines part the entries; values can stand above or below the compound they belong to.

Test system: 496974-208-R-J2-PDC complex spheroids, growth % test/control
Test: Anticancer human tumor 496974-208-R-J2-PDC patient-derived pancreatic carcinoma cell line growth inhibition [CLK]
Details: for viability, T/C: stronger effect = lower value
Procedure, shortened: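 Patient-derived tumor cells grown as complex spheroids with HUVEC endothelial cells and mesenchymal stem cells, treated with drug combinations. Concentrations descend in half-log steps from near clinical Cmax, or from 10 microM if Cmax unknown.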

[1] = curve of first compound, second compound 0.0316 µM
[2] = curve of first compound, second compound 0.1 µM
[3] = curve of first compound, second compound 0.316 µM
[4] = curve of first compound, second compound 1 µM
[5] = curve of first compound, second compound 3.16 µM
[6] = curve of first compound, second compound 10 µM
[7] = second compound 0.0316 µM, first compound 0.0316 µM
[8] = second compound 0.0316 µM, first compound 0.1 µM
[9] = second compound 0.0316 µM, first compound 0.316 µM
[10] = second compound 0.0316 µM, first compound 1 µM
[11] = second compound 0.0316 µM, first compound 3.16 µM
[12] = second compound 0.0316 µM, first compound 10 µM
[13] = second compound 0.1 µM, first compound 0.0316 µM
[14] = second compound 0.1 µM, first compound 0.1 µM
[15] = second compound 0.1 µM, first compound 0.316 µM
[16] = second compound 0.1 µM, first compound 1 µM
[17] = second compound 0.1 µM, first compound 3.16 µM
[18] = second compound 0.1 µM, first compound 10 µM
[19] = second compound 0.316 µM, first compound 0.0316 µM
[20] = second compound 0.316 µM, first compound 0.1 µM
[21] = second compound 0.316 µM, first compound 0.316 µM
[22] = second compound 0.316 µM, first compound 1 µM
[23] = second compound 0.316 µM, first compound 3.16 µM
[24] = second compound 0.316 µM, first compound 10 µM
[25] = second compound 1 µM, first compound 0.0316 µM
[26] = second compound 1 µM, first compound 0.1 µM
[27] = second compound 1 µM, first compound 0.316 µM
[28] = second compound 1 µM, first compound 1 µM
[29] = second compound 1 µM, first compound 3.16 µM
[30] = second compound 1 µM, first compound 10 µM
[31] = second compound 3.16 µM, first compound 0.0316 µM
[32] = second compound 3.16 µM, first compound 0.1 µM
[33] = second compound 3.16 µM, first compound 0.316 µM
[34] = second compound 3.16 µM, first compound 1 µM
[35] = second compound 3.16 µM, first compound 3.16 µM
[36] = second compound 3.16 µM, first compound 10 µM
[37] = second compound 10 µM, first compound 0.0316 µM
[38] = second compound 10 µM, first compound 0.1 µM
[39] = second compound 10 µM, first compound 0.316 µM
[40] = second compound 10 µM, first compound 1 µM
[41] = second compound 10 µM, first compound 3.16 µM
[42] = second compound 10 µM, first compound 10 µM
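Also: spheroids exposed to the drugs for 7 days before readout.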
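For viability, T/C in this document: 100% = DMSO vehicle control wells.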

SMILES: Nc1ccn(C2OC(CO)C(O)C2(F)F)c(=O)n1 (stereo not drawn) + CN1CCN(c2cc(C(=O)Nc3cc4cc(-c5cnn(C)c5)ccc4cn3)ccn2)CC1
IC50 [1]: 959 nM
IC50 [2]: 259 nM
IC50 [3]: < 31.6 nM
IC50 [4]: < 31.6 nM
IC50 [5]: < 31.6 nM
IC50 [6]: < 31.6 nM
viability, T/C [7]: 90.8%
viability, T/C [8]: 76.9%
viability, T/C [9]: 62.3%
viability, T/C [10]: 44%
viability, T/C [11]: 48.2%
viability, T/C [12]: 50%
viability, T/C [13]: 76.3%
viability, T/C [14]: 57.8%
viability, T/C [15]: 50.3%
viability, T/C [16]: 40.6%
viability, T/C [17]: 38.6%
viability, T/C [18]: 38.5%
viability, T/C [19]: 5.11%
viability, T/C [20]: 5.63%
viability, T/C [21]: 6.71%
viability, T/C [22]: 5.91%
viability, T/C [23]: 5.91%
viability, T/C [24]: 4.9%
viability, T/C [25]: 0.42%
viability, T/C [26]: 0.5%
viability, T/C [27]: 1.35%
viability, T/C [28]: 0.4%
viability, T/C [29]: 2.61%
viability, T/C [30]: 0.41%
viability, T/C [31]: 0.53%
viability, T/C [32]: 0.7%
viability, T/C [33]: 0.57%
viability, T/C [34]: 0.47%
viability, T/C [35]: 0.44%
viability, T/C [36]: 1.78%
viability, T/C [37]: 0.28%
viability, T/C [38]: 1.23%
viability, T/C [39]: 1.72%
viability, T/C [40]: 0.25%
viability, T/C [41]: 2.65%
viability, T/C [42]: 0.29%

IC50 (curve of compound): 8670 nM and 8190 nM
SMILES: CC1(C)CCC(CN2CCN(c3ccc(C(=O)NS(=O)(=O)c4ccc(NCC5CCOCC5)c([N+](=O)[O-])c4)c(Oc4cnc5[nH]ccc5c4)c3)CC2)=C(c2ccc(Cl)cc2)C1
viability, T/C (compound 0.0316 µM): 115% and 95.7%
viability, T/C (compound 0.1 µM): 89% and 88.2%
viability, T/C (compound 0.316 µM): 99% and 101%
viability, T/C (compound 1 µM): 99.4% and 99.5%
viability, T/C (compound 3.16 µM): 96.8% and 94.7%
viability, T/C (compound 10 µM): 43.4% and 40.6%

SMILES: COc1cccc2c1C(=O)c1c(O)c3c(c(O)c1C2=O)CC(O)(C(=O)CO)CC3OC1CC(N)C(O)C(C)O1 (stereo not drawn) + CN1CCN(c2cc(C(=O)Nc3cc4cc(-c5cnn(C)c5)ccc4cn3)ccn2)CC1
IC50 [1]: 120 nM
IC50 [2]: 78.5 nM
IC50 [3]: < 31.6 nM
IC50 [4]: < 31.6 nM
IC50 [5]: < 31.6 nM
IC50 [6]: < 31.6 nM
viability, T/C [7]: 68.7%
viability, T/C [8]: 51.4%
viability, T/C [9]: 30.8%
viability, T/C [10]: 3.22%
viability, T/C [11]: 0.57%
viability, T/C [12]: 0.47%
viability, T/C [13]: 59.9%
viability, T/C [14]: 46.6%
viability, T/C [15]: 20.3%
viability, T/C [16]: 2.07%
viability, T/C [17]: 0.59%
viability, T/C [18]: 4.88%
viability, T/C [19]: 7.3%
viability, T/C [20]: 3.63%
viability, T/C [21]: 1.93%
viability, T/C [22]: 0.81%
viability, T/C [23]: 0.45%
viability, T/C [24]: 3.13%
viability, T/C [25]: 0.57%
viability, T/C [26]: 1.13%
viability, T/C [27]: 0.75%
viability, T/C [28]: 0.66%
viability, T/C [29]: 0.36%
viability, T/C [30]: 4.38%
viability, T/C [31]: 0.52%
viability, T/C [32]: 0.84%
viability, T/C [33]: 0.57%
viability, T/C [34]: 0.48%
viability, T/C [35]: 1.77%
viability, T/C [36]: 4.51%
viability, T/C [37]: 0.22%
viability, T/C [38]: 1.44%
viability, T/C [39]: 0.2%
viability, T/C [40]: 0.2%
viability, T/C [41]: 0.21%
viability, T/C [42]: 5.39%

IC50 [1]: 185 nM
IC50 [2]: 177 nM
IC50 [3]: 191 nM
IC50 [4]: 115 nM
IC50 [5]: 103 nM
IC50 [6]: 53.6 nM
SMILES: COc1cccc2c1C(=O)c1c(O)c3c(c(O)c1C2=O)CC(O)(C(=O)CO)CC3OC1CC(N)C(O)C(C)O1 (stereo not drawn) + CNC(=O)c1ccc(Nc2nc(OC3CCCC3)c3c(-c4ccc5nc(C)oc5c4)c[nH]c3n2)c(OC)c1
viability, T/C [7]: 70.4%
viability, T/C [8]: 62.2%
viability, T/C [9]: 38.3%
viability, T/C [10]: 3.78%
viability, T/C [11]: 0.62%
viability, T/C [12]: 0.49%
viability, T/C [13]: 67.5%
viability, T/C [14]: 66.1%
viability, T/C [15]: 33.8%
viability, T/C [16]: 3.28%
viability, T/C [17]: 0.77%
viability, T/C [18]: 2.66%
viability, T/C [19]: 68%
viability, T/C [20]: 68.3%
viability, T/C [21]: 36.2%
viability, T/C [22]: 3.12%
viability, T/C [23]: 0.68%
viability, T/C [24]: 0.3%
viability, T/C [25]: 68%
viability, T/C [26]: 52.9%
viability, T/C [27]: 22.5%
viability, T/C [28]: 1.15%
viability, T/C [29]: 2.86%
viability, T/C [30]: 3.97%
viability, T/C [31]: 57.9%
viability, T/C [32]: 50.7%
viability, T/C [33]: 18.4%
viability, T/C [34]: 1.62%
viability, T/C [35]: 0.55%
viability, T/C [36]: 0.42%
viability, T/C [37]: 57.8%
viability, T/C [38]: 40.5%
viability, T/C [39]: 16.8%
viability, T/C [40]: 1.34%
viability, T/C [41]: 0.84%
viability, T/C [42]: 0.85%
